Columns and labels:
[1] = In vitro stability in human plasma at 37° C. (enantiomerization, D/H exchange, degradation); format: in vitro ADME
Protocol: (§1) (+)- and (−)-3-(5-Amino-2-methyl-4-oxoquinazolin-3(4H)-yl)-piperidine-2,6-dione and rac-3-(5-amino-2-methyl-4-oxoquinazolin-3(4H)-yl)-(3-^2H)-piperidine-2,6-dione (87% deuterium content at the C3-position and no detectable deuterium at the C5-position, 50:50 racemic mixture of (+)- and (−)-deuterated enantiomers) were incubated in CD-1 mouse plasma (K3EDTA as anticoagulant) or human plasma (K3EDTA as anticoagulant) at 37° C. in duplicates. Aliquots were removed at t=0, 0.5, 1, 2, 6, 8, 24, 48, and 96 h.
(§2) Plasma proteins were precipitated by addition of acetonitrile containing internal standard (ISTD, tolbutamide) and the supernatants were analyzed semi-quantitatively by LC/MS-MS with elution on a chiral column (Daicel ChiralPak IE-3) for the separation of enantiomers (isocratic method of 20:80 v/v 0.1% acetic acid in water and acetonitrile). Peak areas for the deuterated enantiomers (+)- and (−)-3-(5-amino-2-methyl-4-oxoquinazolin-3(4H)-yl)-(3-^2H)-piperidine-2,6-dione were normalized to the ISTD and corrected for the isotopic peak of the corresponding protonated enantiomer, (+)- and (−)-3-(5-amino-2-methyl-4-oxoquinazolin-3(4H)-yl)-piperidine-2,6-dione respectively, if present. Corrected data were analyzed and plotted using Microsoft Excel 2013 (Microsoft Corp, Redmond, WA) and the Excel Solver.
(§3) Scheme 1 below illustrates the possible reactions in a solution of deuterated racemate. The deuterium in both enantiomers, d+ and d−, can be lost by D/H exchange to give both protonated enantiomers, h+ and h− with rate constants kD++, kD+−, kD−+, kD−−. At the same time, the protonated enantiomers h+ and h−, can exchange, with enantiomerization rate constants k+− and k−+. All four compounds can also degrade with potentially different degradation rate constants kh+d, kh−d, kd+d, kd−d.
(§4) Human and mouse plasma data were analyzed independently. Independent analyses of the data for h+ and h− were performed first and the average rate constants k+− and k−+ from these two fits were calculated and used as constants in the fitting of the stability data of the deuterated racemate. Calculated concentrations were obtained through numerical approximation of differential equations (1) and (2) for the stability studies of h+ and h− and equations (3) to (6) for the stability study of deuterated racemate (50:50 d+:d−) by the Euler method (equation (7)). The step between calculated time points was minimized in order to minimize the local error (proportional to the square of the step size) and the global error (proportional to the step size).
(§5) The average degradation rate constant obtained by fitting the data for h+ and h− was used in the fit of the stability data of the deuterated racemate. Data analysis was performed in Microsoft Excel 2013, using the Solver Generalized Reduced Gradient Nonlinear method with central derivatives to minimize the sum of sums of weighted Δ^2, square of difference between ISTD-normalized experimental data and calculated value, divided by the experimental data.
(§6) [formula] where [h+], [h−], [d+], [d−] are the concentrations of both protonated and deuterated enantiomers, k+− and k−+ are the rate constants for the enantiomerization reactions [h+] to [h−] and [h−] to [h+] respectively, kD++, kD+−, kD−+, and kD−− are the rate constants for the D/H exchange reactions [d+] or [d−] to [h+] or [h−], and kd is the rate constant for the degradation of all four compounds
(§7) [formula] where [X]ti is the concentration of either enantiomer at time ti, t1 is a time at which [X] is known, t2 is a time at which [X] is calculated, and [d[X]]t1 is the calculated value of the differential equation at time t1.

[2] = In vitro stability in CD-1 mouse plasma at 37° C. (enantiomerization, D/H exchange, degradation); format: in vitro ADME
Protocol: as §1, §2, §3, §4, §5, §6, §7

[3] = Pharmacokinetics after single oral gavage dose in female CB.17 SCID mice; format: in vivo; conditions: for AUC, compound analyzed d+ / AUC, compound analyzed d− / AUC, compound analyzed h+ / AUC, compound analyzed h−: 15 mg/kg
Protocol: Female CB.17 SCID mice (8-12 weeks of age) were administered a single dose of protonated racemate (h-rac, 30 mg/kg), d− (15 mg/kg), or d+ (15 mg/kg) by oral gavage. Deuterated enantiomers (i.e., d− and d+) used in this study contain ˜10% of the corresponding protonated enantiomer. Blood was collected into potassium EDTA (K2EDTA) containers by terminal cardiac puncture under carbon dioxide anesthesia from N=3 per group per time point at 0.25, 0.5, 1, 2, 4, 8, and 24 h post-dose. Plasma was isolated, frozen, and stored until ready for analysis.
Samples were prepared for quantitative analysis by liquid-liquid extraction in methyl-t-butylether (MTBE) with ondansetron as internal standard (ISTD). MTBE was evaporated under nitrogen flow and samples were reconstituted in 1% acetic acid in water/acetonitrile (20/80). Analysis was performed by chiral LC/MS-MS on a Daicel ChiralPak IE-3 column using an isocratic LC method of 0.1% acetic acid in water and acetonitrile (20:80 v/v). ISTD-normalized peak areas for deuterated enantiomers d- and d+ were corrected from interference from naturally occurring isotopes of the protonated analytes. Concentrations were obtained by interpolation on standard curves prepared in mouse plasma using standard solutions of the analytes.
Data was plotted in Excel 2013 (Microsoft Corp, Redmond, WA) and analyzed within Excel using the PKSolver add-in (version 2.0, as described in Zhang Y. et al Comput. Methods Programs Biomed. 99 (2010), 306-314) to determine pharmacokinetic parameters including exposure (as area under the curve, AUC) and elimination half-life (t1/2).

[4] = tested on: Human Multiple Myeloma H929 Cell Line; assay: Efficacy in human multiple myeloma H929 xenograft in female CB.17 SCID mice; format: in vivo; conditions: daily oral gavage 23 days, FIG. 10; for potency/efficacy at limiting tumor growth, comparison between compounds: d− and d+ 1.5 or 15 mg/kg, h-rac 3 mg/kg
Protocol: Female CB.17 SCID mice (8-12 weeks of age, N=60) were administered 1×10^7 H929 tumor cells in 50% Matrigel subcutaneously in their flank (0.2 mL/mouse). Animals were returned to their cages and tumor growth was monitored. Tumor size was reported as tumor volume (Vol) calculated as Vol=½ (L*W^2), where L and W are the length and width of the tumor as measured by caliper (L>W). A pair match was performed when tumors reached an average size of 100-150 mm^3 and the animals were divided into 6 treatment groups of N=10 animals each.
Animals were treated daily by oral gavage (10 mL/kg) with vehicle, d− (1.5 or 15 mg/kg), d+ (1.5 or 15 mg/kg), or h-rac (racemic mixture of protonated enantiomers h− and h+; 3 mg/kg). The compound h-rac was administered at twice the dose of the deuterated enantiomers since it contains 50% (i.e., 1.5 mg/kg) of each enantiomer. Body weight measurements were taken daily for the first week then biweekly. Tumor sizes were measured by caliper biweekly. The study was terminated after 23 days of dosing, then all animals were euthanized.

[5] = human plasma, 37° C., fit to equations 1 to 6
[6] = human plasma, 37° C., average of values for h− and h+
[7] = mouse plasma, 37° C., fit to equations 1 to 6
[8] = mouse plasma, 37° C., average of values for h− and h+
[9] = mouse plasma, single oral gavage 15 mg/kg

3-(5-amino-2-methyl-4-oxoquinazolin-3(4H)-yl)-(3-^2H)-piperidine-2,6-dione [d-rac]
Calculated half-life t1/2, D/H exchange of d+ (D++ and D+−) ([1]; human plasma, 37° C.): 8.3 h
Calculated half-life t1/2, D/H exchange of d− (D−+ and D−−) ([1]; human plasma, 37° C.): 5.2 h
Calculated half-life t1/2, degradation d ([1]; human plasma, 37° C.): 7.8 h
Calculated half-life t1/2, enantiomerization +− ([1]; human plasma, 37° C.): 2.6 h
Calculated half-life t1/2, enantiomerization −+ ([1]; human plasma, 37° C.): 3.6 h
k D++ (rate constant D/H exchange d+ to h+) [1, 5]: 2.33e-05 s⁻¹
k D+− (rate constant D/H exchange d+ to h−) [1, 5]: 0 s⁻¹
k D−+ (rate constant D/H exchange d− to h+) [1, 5]: 0 s⁻¹
k D−− (rate constant D/H exchange d− to h−) [1, 5]: 3.72e-05 s⁻¹
k +− (enantiomerization rate constant used in analysis of d-rac) [1, 6]: 0.264 h⁻¹
k d (degradation rate constant for the enantiomers of d-rac) [1, 6]: 2.51e-05 s⁻¹
k −+ (enantiomerization rate constant used in analysis of d-rac) [1, 6]: 0.195 h⁻¹
Calculated half-life t1/2, D/H exchange of d+ (D++ and D+−) ([2]; mouse plasma, 37° C.): 14.5 h
Calculated half-life t1/2, D/H exchange of d− (D−+ and D−−) ([2]; mouse plasma, 37° C.): 12.7 h
Calculated half-life t1/2, degradation d ([2]; mouse plasma, 37° C.): 13.0 h
Calculated half-life t1/2, enantiomerization +− ([2]; mouse plasma, 37° C.): 10.5 h
Calculated half-life t1/2, enantiomerization −+ ([2]; mouse plasma, 37° C.): 7.2 h
k D++ (rate constant D/H exchange d+ to h+) [2, 7]: 1.29e-05 s⁻¹
k D+− (rate constant D/H exchange d+ to h−) [2, 7]: 3.03e-07 s⁻¹
k D−+ (rate constant D/H exchange d− to h+) [2, 7]: 4.61e-06 s⁻¹
k D−− (rate constant D/H exchange d− to h−) [2, 7]: 1.06e-05 s⁻¹
k +− (enantiomerization rate constant used in analysis of d-rac) [2, 8]: 0.0662 h⁻¹
k d (degradation rate constant for the enantiomers of d-rac) [2, 8]: 1.48e-05 s⁻¹
k −+ (enantiomerization rate constant used in analysis of d-rac) [2, 8]: 0.0959 h⁻¹

[2H]C1(n2c(C)nc3cccc(N)c3c2=O)CCC(=O)NC1=O (single isomer, unassigned; (+)) [d+, (+)-3-(5-Amino-2-methyl-4-oxoquinazolin-3(4H)-yl)-(3-^2H)-piperidine-2,6-dione]
t1/2, compound analyzed d+ [3, 9]: 1.1 h
t1/2, compound analyzed h+ [3, 9]: 1.0 h
AUC, compound analyzed d+ [3, 9]: 63600 ng·h/mL
AUC, compound analyzed d− [3, 9]: 661 ng·h/mL
AUC, compound analyzed h+ [3, 9]: 6120 ng·h/mL
AUC, compound analyzed h− [3, 9]: 993 ng·h/mL
efficacy (tumor volume) by dose ([4]; 1.5 or 15 mg/kg): observed only at the highest dose
potency/efficacy at limiting tumor growth, comparison between compounds [4]: less efficacious than d−

Cc1nc2cccc(N)c2c(=O)n1C1CCC(=O)NC1=O (single isomer, unassigned; (+)) [h+, (+)-3-(5-amino-2-methyl-4-oxoquinazolin-3(4H)-yl)-piperidine-2,6-dione, reference compound]
k +− (enantiomerization rate constant h+ to h−) ([1]; human): 0.297 h⁻¹
k d (degradation rate constant) ([1]; human): 2.68e-05 s⁻¹
k −+ (enantiomerization rate constant h− to h+) ([1]; human): 0.220 h⁻¹
Calculated half-life t1/2, degradation d ([1]; human, plasma): 7.2 h
Calculated half-life t1/2, enantiomerization +− ([1]; human, plasma): 2.3 h
half-life ([1]; human, plasma, Calculated half-life t1/2, enantiomerization −+): 3.2 h
k +− (enantiomerization rate constant h+ to h−) ([2]; CD-1, mouse): 0.0603 h⁻¹
k d (degradation rate constant) ([2]; CD-1, mouse): 1.45e-05 s⁻¹
k −+ (enantiomerization rate constant h− to h+) ([2]; CD-1, mouse): 0.119 h⁻¹
Calculated half-life t1/2, degradation d ([2]; CD-1, mouse, plasma): 13.3 h
Calculated half-life t1/2, enantiomerization +− ([2]; CD-1, mouse, plasma): 11.5 h
Calculated half-life t1/2, enantiomerization −+ ([2]; CD-1, mouse, plasma): 5.8 h

[2H]C1(n2c(C)nc3cccc(N)c3c2=O)CCC(=O)NC1=O (single isomer, unassigned; (-)) [d−, (−)-3-(5-Amino-2-methyl-4-oxoquinazolin-3(4H)-yl)-(3-^2H)-piperidine-2,6-dione]
t1/2, compound analyzed d− [3, 9]: 1.2 h
t1/2, compound analyzed h− [3, 9]: 1.2 h
AUC, compound analyzed d+ [3, 9]: 898 ng·h/mL
AUC, compound analyzed d− [3, 9]: 44100 ng·h/mL
AUC, compound analyzed h+ [3, 9]: 1180 ng·h/mL
AUC, compound analyzed h− [3, 9]: 6160 ng·h/mL
potency/efficacy at limiting tumor growth, comparison between compounds [4]: more potent at limiting tumor growth at both doses than h-rac

Cc1nc2cccc(N)c2c(=O)n1C1CCC(=O)NC1=O (single isomer, unassigned; (-)) [h−, (−)-3-(5-amino-2-methyl-4-oxoquinazolin-3(4H)-yl)-piperidine-2,6-dione, reference compound]
k +− (enantiomerization rate constant h+ to h−) ([1]; human): 0.231 h⁻¹
k d (degradation rate constant) ([1]; human): 2.35e-05 s⁻¹
k −+ (enantiomerization rate constant h− to h+) ([1]; human): 0.169 h⁻¹
half-life ([1]; human, plasma, Calculated half-life t1/2, degradation d): 8.2 h
half-life ([1]; human, plasma, Calculated half-life t1/2, enantiomerization +−): 3 h
k +− (enantiomerization rate constant h+ to h−) ([2]; CD-1, mouse): 0.0722 h⁻¹
k d (degradation rate constant) ([2]; CD-1, mouse): 1.51e-05 s⁻¹
k −+ (enantiomerization rate constant h− to h+) ([2]; CD-1, mouse): 0.0730 h⁻¹
half-life ([2]; CD-1, mouse, plasma, Calculated half-life t1/2, degradation d): 12.7 h
half-life ([2]; CD-1, mouse, plasma, Calculated half-life t1/2, enantiomerization +−): 9.6 h
half-life ([2]; CD-1, mouse, plasma, Calculated half-life t1/2, enantiomerization −+): 9.5 h
share of the total exposure ([3]; mice, exposure to the enantiomers of the protonated molecule (h-rac dosed)): 39%

From US11820720B2, “3-(5-substituted-4-oxoquinazolin-3(4H)-yl)-3-deuteropiperidine-2,6-dione derivatives and compositions comprising and methods of using the same” (DeuteRx, LLC, priority 2013, dated 2023)
